Source: ChEMBL document CHEMBL1201862, “PubChem BioAssay data set” (2004)
“And” between values parts separate entries of the source, which are not always exact repeats. Equal entries are not always repeated. The source made the active and inactive calls.

Tests used:
Cytochrome P450 2C9 = Cytochrome P450 2C9 (Homo sapiens, UniProt P11712)
[1] = target: T1, Heat shock factor protein 1 (Mus musculus, UniProt P38532); assay: decrease of HSF1-responsive luciferase luminescence – cell-based, NIH3T3, dose retest, confirmation (AID 2382); assay type: functional;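 also: NIH3T3 fibroblasts with HSF1-driven luciferase reporter stressed by proteasome inhibitor MG132; luminescence from HSF1-driven luciferase expression after 8 hours of MG132 stress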
T1 sequence (P38532 whole entry): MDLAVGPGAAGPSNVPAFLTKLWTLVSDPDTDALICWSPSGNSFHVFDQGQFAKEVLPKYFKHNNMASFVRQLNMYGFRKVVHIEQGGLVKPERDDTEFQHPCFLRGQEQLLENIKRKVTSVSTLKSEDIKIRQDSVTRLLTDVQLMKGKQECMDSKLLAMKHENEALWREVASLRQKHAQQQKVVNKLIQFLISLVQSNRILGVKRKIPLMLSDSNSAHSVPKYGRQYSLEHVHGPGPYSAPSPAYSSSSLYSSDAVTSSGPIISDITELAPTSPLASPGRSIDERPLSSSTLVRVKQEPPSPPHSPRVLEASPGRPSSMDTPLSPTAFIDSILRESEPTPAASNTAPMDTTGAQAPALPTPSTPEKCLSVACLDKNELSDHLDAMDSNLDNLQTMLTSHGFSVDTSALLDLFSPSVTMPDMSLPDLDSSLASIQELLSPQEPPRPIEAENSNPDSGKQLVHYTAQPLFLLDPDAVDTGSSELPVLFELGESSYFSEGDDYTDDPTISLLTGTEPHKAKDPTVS

Cytochrome P450 3A4 = Cytochrome P450 3A4 (Homo sapiens, UniProt P08684);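 also: CYP3A4 tested as one member of a cytochrome P450 panel screen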
Cytochrome P450 3A4, sequence (P08684 whole entry): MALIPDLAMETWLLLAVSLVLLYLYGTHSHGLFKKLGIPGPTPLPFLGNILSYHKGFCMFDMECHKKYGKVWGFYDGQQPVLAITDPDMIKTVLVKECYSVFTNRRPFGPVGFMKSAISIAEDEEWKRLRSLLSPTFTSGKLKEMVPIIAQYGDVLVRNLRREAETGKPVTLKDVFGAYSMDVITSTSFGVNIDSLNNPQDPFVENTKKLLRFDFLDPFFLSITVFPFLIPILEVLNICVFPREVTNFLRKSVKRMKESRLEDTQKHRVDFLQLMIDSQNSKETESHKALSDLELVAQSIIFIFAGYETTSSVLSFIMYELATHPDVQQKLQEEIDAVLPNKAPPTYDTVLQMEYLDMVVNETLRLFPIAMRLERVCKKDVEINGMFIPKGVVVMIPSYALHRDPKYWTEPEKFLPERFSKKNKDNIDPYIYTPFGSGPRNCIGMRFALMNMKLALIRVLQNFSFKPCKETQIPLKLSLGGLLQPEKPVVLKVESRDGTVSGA

[2] = test system: Streptococcus sp. 'group A'; assay: Streptococcus pyogenes SK(-)GAS viability under kanamycin – luminescence, BacTiterGlo, confirmation, counter-screen for streptokinase expression inhibitor project, dose response (AID 1900); assay type: functional, organism-based
Streptokinase A = target: T2, Streptokinase A (Streptococcus pyogenes serotype M1, UniProt P10520); assay: viability-normalized secreted streptokinase activity reduction – plasminogen activation absorbance, OD405, dose response (AID 1914); assay type: functional, Streptococcus pyogenes M1 GAS;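 also: secreted streptokinase activity via plasminogen activation per viability signal from cell pellet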
T2 sequence (P10520 whole entry): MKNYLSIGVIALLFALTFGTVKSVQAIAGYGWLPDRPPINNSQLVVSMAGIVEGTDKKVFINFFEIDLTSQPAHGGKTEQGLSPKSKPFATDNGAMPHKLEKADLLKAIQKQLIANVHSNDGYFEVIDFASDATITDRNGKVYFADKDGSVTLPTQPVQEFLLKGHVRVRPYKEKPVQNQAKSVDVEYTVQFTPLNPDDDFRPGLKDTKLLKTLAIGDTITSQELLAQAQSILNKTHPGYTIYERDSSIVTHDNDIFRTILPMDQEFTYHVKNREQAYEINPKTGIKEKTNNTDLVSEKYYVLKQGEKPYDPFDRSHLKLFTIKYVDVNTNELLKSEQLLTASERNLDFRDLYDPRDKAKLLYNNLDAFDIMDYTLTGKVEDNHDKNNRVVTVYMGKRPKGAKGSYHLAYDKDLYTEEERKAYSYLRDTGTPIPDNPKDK

Streptococcus = assay: GAS UMAA2166 growth inhibition – luminescence, BacTiterGlo, counter-screen for streptokinase expression inhibitor project, dose response (AID 1915); assay type: functional, organism-based;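 also: potency for reduction of bacterial viability or growth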
Cytochrome P450 2C19 = Cytochrome P450 2C19 (Homo sapiens, UniProt P33261); assay: Cytochrome panel assay with activity outcomes. Panel member name: p450-cyp2c19 Compounds with AC50 equal or less than 10 uM are considered active; assay type: functional
Cytochrome P450 2C19, sequence (P33261 whole entry): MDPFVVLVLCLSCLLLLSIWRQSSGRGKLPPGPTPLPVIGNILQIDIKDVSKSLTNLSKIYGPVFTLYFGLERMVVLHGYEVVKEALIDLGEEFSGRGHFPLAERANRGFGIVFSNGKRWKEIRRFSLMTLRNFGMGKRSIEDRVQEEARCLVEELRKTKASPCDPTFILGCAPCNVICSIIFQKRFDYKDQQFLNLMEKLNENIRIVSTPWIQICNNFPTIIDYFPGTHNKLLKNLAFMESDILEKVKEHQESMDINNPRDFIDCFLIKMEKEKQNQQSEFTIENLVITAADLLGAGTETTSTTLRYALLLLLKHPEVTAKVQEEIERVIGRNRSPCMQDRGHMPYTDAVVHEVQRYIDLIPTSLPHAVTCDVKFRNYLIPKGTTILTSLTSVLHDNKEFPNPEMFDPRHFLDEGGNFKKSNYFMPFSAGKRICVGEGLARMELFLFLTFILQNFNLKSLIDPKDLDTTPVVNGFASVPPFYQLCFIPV

[3] = Trypanosoma cruzi growth suppression in host cells – NIH3T3 host cells, beta-gal luminescence, confirmation (AID 2044); assay type: functional, cell-based;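 also: intracellular parasites grown in NIH/3T3 mouse fibroblasts as host cells; luminescent beta-galactosidase reporter signal from transgenic T. cruzi replicating inside host cells; inhibitors lower the luminescence signal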
[4] = NIH3T3 cell viability loss – ATP luminescence, mouse fibroblasts, counter-screen, dose response (AID 2010); assay type: functional, cell-based;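 also: cells exposed to compound for about 90 hours before reading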

Cytochrome P450 2C9, sequence (P11712 whole entry): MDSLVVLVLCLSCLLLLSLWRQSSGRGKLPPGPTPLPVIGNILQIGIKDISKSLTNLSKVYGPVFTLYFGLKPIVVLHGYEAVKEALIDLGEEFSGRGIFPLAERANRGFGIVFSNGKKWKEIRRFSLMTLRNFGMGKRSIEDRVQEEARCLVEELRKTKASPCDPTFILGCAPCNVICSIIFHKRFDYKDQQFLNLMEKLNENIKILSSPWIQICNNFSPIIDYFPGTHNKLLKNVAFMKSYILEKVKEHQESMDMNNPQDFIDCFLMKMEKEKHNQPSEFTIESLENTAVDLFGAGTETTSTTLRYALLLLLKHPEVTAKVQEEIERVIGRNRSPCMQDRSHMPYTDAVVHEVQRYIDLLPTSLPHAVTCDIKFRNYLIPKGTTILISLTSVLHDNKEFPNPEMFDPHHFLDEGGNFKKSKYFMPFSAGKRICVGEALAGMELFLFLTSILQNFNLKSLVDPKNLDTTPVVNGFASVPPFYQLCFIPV

CCOC(=O)c1c(-c2ccccc2)nc2ccc(Cl)cn12
AC50 (Cytochrome P450 2C9): 15.8 µM (inconclusive)

CSc1nc(Cc2ccccc2)cc(=O)[nH]1
EC50 [1]: > 195 µM (not active)

O=C(c1c(O)nc2cc(Cl)ccc2c1O)C1CC1
AC50 (Cytochrome P450 3A4): 0.00316 µM (inconclusive)

CN(CCc1ccccn1)c1ccc2c(c1)Cc1ccccc1-2
AC50 (Cytochrome P450 2C9): 7.94 µM (inconclusive)

COc1ccc(Cl)cc1C(=O)NNC(=S)NC(=O)c1cc(-c2ccccc2)nc2ccccc12
EC50 [2]: 1.31 µM (active) | EC50 (Streptokinase A): > 150 µM (not active) | EC50 (Streptococcus): > 150 µM (inconclusive)

COC(=O)c1ccc(NC(=O)c2cc3sccc3n2C)cc1
AC50 (Cytochrome P450 2C9): 10 µM (inconclusive)

CCCCNC(=O)c1onc(CSc2cccc(Cl)c2)c1C(=O)O
EC50 [1]: > 195 µM (not active)

Fc1ccccc1N=C(S)Nc1ccc(CN2CCOCC2)cc1
EC50 [1]: 68.4 µM (active)

N#Cc1c(N)n(-c2ccccc2N)c2nc3ccccc3nc12
EC50 [1]: 11.2 µM (active)

COc1ccc(Cl)cc1C(=O)NNC(=S)NC(=O)c1ccc(F)c(F)c1
EC50 [2]: 0.217 µM (active) | EC50 (Streptococcus): 1.37 µM (active)

CC(=O)c1cc(C#N)c(Oc2cccc(C(F)(F)F)c2)nc1C
AC50 (Cytochrome P450 2C9): 25.1 µM (inconclusive)

COC(=O)[C@H]1C[C@@H]1[C@H](NC(=O)c1cnccn1)c1ccccc1
AC50 (Cytochrome P450 3A4): 7.94 µM (inconclusive)

O=C(O)c1cc(-c2ccc(-c3ccc(-c4cc(C(=O)O)c5cc(Cl)ccc5n4)cc3)cc2)nc2ccc(Cl)cc12
AC50 (Cytochrome P450 2C9): 3.16 µM (inconclusive)

O=C(NCC1CCCO1)C(c1cccnc1)N(C(=O)Cc1cccs1)c1cccnc1 (stereo unspecified)
AC50 (Cytochrome P450 2C19; read-out: AC50): 31.6 µM (inconclusive)

Cc1cc(NC2CCCC2)n2nc(C)c(-c3ccccc3)c2n1
EC50 [3]: 3.4 µM (active) | EC50 [4]: > 60 µM (not active)

Cc1cc(C)cc(NS(=O)(=O)c2ccc(NC(=S)NC(=O)c3cccs3)cc2)c1
EC50 [2]: 4.5 µM (active) | EC50 (Streptokinase A): 11.7 µM (active) | EC50 (Streptococcus): 50.1 µM (active)

CC[C@@]1(c2ccc(N)cc2)CCC(=O)NC1=O
AC50 (Cytochrome P450 3A4): 12.6 µM (inconclusive) and 10 µM (inconclusive)

Nc1ccccc1SCC(=O)Nc1ccc2c(c1)OCCO2
EC50 [1]: > 195 µM (not active)

CCCC[C@@H]1CNC(=O)C(=O)N1CCc1cccc2ccccc12
EC50 [1]: > 195 µM (not active)

Cc1ccc(SCCCn2cncn2)cc1
EC50 [1]: > 195 µM (not active)

CC(C)(C)NC(=O)C1CC(=O)OC12CCOC(C)(C)C2 (stereo unspecified)
EC50 [1]: > 195 µM (not active)

COC(=O)[C@H]1C[C@@H]1[C@H](NC(=O)c1ccccc1)c1ccccc1
AC50 (Cytochrome P450 2C9): 39.8 µM (inconclusive)

CCn1c(SCC(=O)Nc2sc3c(c2C#N)CCCC3)nnc1-c1ccco1
EC50 [3]: 1.89 µM (active) | EC50 [4]: > 60 µM (inconclusive)

Cc1cccc(C(=O)NC2CCN(C(=O)Nc3ccc(F)cc3)CC2)c1
EC50 [1]: 32.7 µM (active)

C[C@H](CCC(=O)NN)[C@@H]1CC[C@@H]2[C@H]3CC[C@H]4C[C@@H](O)CC[C@@]4(C)[C@@H]3CC[C@]21C
AC50 (Cytochrome P450 2C19; read-out: AC50): 3.16 µM (inconclusive)

Cc1cc(OCC(=O)OC(C)C)c2c3c(c(=O)oc2c1)CCCC3
AC50 (Cytochrome P450 3A4): 28.2 µM (inconclusive)

COc1cccc(Nc2ncc3nc(-c4ccc(Cl)cc4)c(=O)n(C[C@H]4CCCO4)c3n2)c1
AC50 (Cytochrome P450 3A4): 15.8 µM (inconclusive)

Cc1nn(Cc2ccccc2)c(C)c1NC(=O)c1noc2c1CCc1ccccc1-2
EC50 [1]: > 195 µM (not active)

Brc1ccc(C2C3=C(Nc4ncnn42)c2ccccc2OC3c2ccncc2)cc1 (stereo unspecified)
EC50 [3]: 4.12 µM (active) | EC50 [2]: 22.4 µM (active) | EC50 [4]: > 60 µM (not active) | EC50 (Streptokinase A): > 150 µM (not active) | EC50 (Streptococcus): 21.5 µM (active)

CC(C)N1CCN(Cc2ccc3nsnc3c2)CC1CCO (stereo unspecified)
EC50 [1]: > 195 µM (not active)

Oc1ccccc1C1CCCCC1c1ccccc1 (stereo unspecified)
EC50 [2]: 3.83 µM (active) | EC50 (Streptokinase A): 12.7 µM (active) | EC50 (Streptococcus): 50.4 µM (active)

COc1ccc(-c2oc(NC(=O)CSc3nc[nH]n3)c(C#N)c2-c2ccc(OC)cc2)cc1
EC50 [2]: 2.37 µM (active) | EC50 (Streptokinase A): 1.08 µM (active) | EC50 (Streptococcus): 16 µM (active)

Cc1ccc(S(=O)(=O)n2c3ccccc3c3nnc(C(=O)c4ccccc4)nc32)cc1
AC50 (Cytochrome P450 2C19; read-out: AC50): 0.0126 µM (inconclusive) | AC50 (Cytochrome P450 2C9): 3.16 µM (inconclusive)

COc1cccc(-c2cncnc2NC2CCNCC2)c1
AC50 (Cytochrome P450 2C19): inconclusive

CCCNC(=O)OC[C@@H]1O[C@H](CCO/N=C(\C)CCN2CCc3nc(-c4ccccc4)c(-c4ccccc4)cc3C2)C=C[C@@H]1Oc1ccc(OC)cc1
AC50 (Cytochrome P450 2C19; read-out: AC50): 0.316 µM (inconclusive)

Cc1ccsc1C(=O)C1CCCN(Cc2ccc(-n3cccn3)cc2)C1 (stereo unspecified)
EC50 [3]: 0.201 µM (active) | EC50 [4]: > 60 µM (inconclusive)

COc1ccccc1NC(=O)c1ccc(N2CC3CC(C2)c2cccc(=O)n2C3)c(NC(=O)c2ccncc2)c1 (stereo unspecified)
EC50 [1]: > 195 µM (not active)

CN1CCN(c2ccc(S(=O)(=O)N3CCCCC3)cc2[N+](=O)[O-])CC1
EC50 [3]: 0.81 µM (active) | EC50 [4]: > 60 µM (not active)

O=C(c1ccc2c(c1)OCO2)C1CCCN(Cc2cccn2-c2cccnc2)C1 (stereo unspecified)
EC50 [3]: 3.29 µM (active) | EC50 [4]: > 60 µM (not active)

O=C(Nc1ccccc1Cc1ccccc1)c1ccncc1
EC50 [3]: 0.802 µM (active) | EC50 [4]: > 60 µM (not active)

Cc1ccccc1OCCC(=O)OCC(=O)N1c2ccccc2NC(=O)C1(C)C
EC50 [1]: > 195 µM (not active)

CS(=O)(=O)c1cccc(NC(=O)c2ccc(Cl)c(Cl)c2)c1
EC50 [3]: 3.1 µM (active) | EC50 [4]: > 30 µM (not active)

COCCn1c(C(=O)N(C)C)cc2c1C[C@H]1CN(C(=O)c3ccccc3)[C@@](Cc3ccc(F)cc3)(C(=O)OC)[C@@H]21
AC50 (Cytochrome P450 2C19; read-out: AC50): 39.8 µM (inconclusive) | AC50 (Cytochrome P450 2C9): 25.1 µM (inconclusive)

COc1ncc2nc(-c3cc(F)cc(F)c3)c(=O)n(CCC#N)c2n1
AC50 (Cytochrome P450 3A4): 20 µM (inconclusive)

COc1cc(OC)cc(C(=O)N[C@H](C(=O)OCC(=O)N2CCc3ccccc32)C(C)C)c1
EC50 [1]: > 195 µM (not active)

CCCCCCN1N=C(C)C(C(=O)c2ccc(Cl)cc2)C1=O (stereo unspecified)
EC50 [2]: 2.44 µM (active) | EC50 (Streptokinase A): > 150 µM (not active) | EC50 (Streptococcus): 29.5 µM (active)

CCOC(=O)c1ccc(NC(=O)c2[nH]cnc2C(=O)N[C@@H](Cc2ccccc2)C(=O)OC(C)(C)C)cc1
EC50 [2]: 5.26 µM (active) | EC50 (Streptokinase A): > 150 µM (not active) | EC50 (Streptococcus): 44.9 µM (active)

COc1ccc(-c2[nH]ncc2N=Nc2cc(C)cc(C)c2)cc1
EC50 [2]: 23.1 µM (active) | EC50 (Streptokinase A): > 150 µM (not active) | EC50 (Streptococcus): > 150 µM (not active)

O=C(CNCCc1ccc(F)cc1)Nc1cc(F)ccc1F
EC50 [1]: > 195 µM (not active)

CC(OC(=O)CN1C(=O)NC2(CCCC2)C1=O)C(=O)c1ccccc1 (stereo unspecified)
EC50 [1]: > 195 µM (not active)

Cn1cccc1C(=O)N1CCC2(CCN(Cc3ccc(C#N)cc3)CC2)CC1
AC50 (Cytochrome P450 2C19; read-out: AC50): 0.2 µM (inconclusive)

CC(=O)c1c(-c2ccc(Cl)cc2Cl)noc1C
EC50 [1]: > 195 µM (not active)

CCC1CC(CSc2nc[nH]n2)OC1=O (stereo unspecified)
AC50 (Cytochrome P450 2C9): 25.1 µM (inconclusive)

CCOC(=O)c1c(-c2ccc(OC)cc2)csc1NC=C1C(=O)CCCC1=O
EC50 [2]: 66 µM (active) | EC50 (Streptokinase A): > 150 µM (not active) | EC50 (Streptococcus): 32.7 µM (active)

Cc1c(C#N)c(/N=C/N(C)C)c(C(=O)c2ccc(Br)cc2)n1-c1ccc(Cl)cc1
EC50 [3]: 2.8 µM (active) | EC50 [4]: > 60 µM (inconclusive)

Cc1nn(-c2ccccc2)c(C)c1/C=N/NC(=O)c1cc(C23CC4CC(CC(C4)C2)C3)[nH]n1
EC50 [2]: 5.31 µM (active) | EC50 (Streptokinase A): 10.3 µM (active) | EC50 (Streptococcus): 46.2 µM (active)

Oc1ccccc1/N=C/c1c(O)ccc2oc3c(c12)CCCC3
EC50 [2]: 7.61 µM (active) | EC50 (Streptokinase A): > 150 µM (not active) | EC50 (Streptococcus): 10.6 µM (active)

CCO/C(O)=C1\C(C)=Nc2sc(C(=O)c3ccc(Br)cc3)c(N)c2C1c1ccc(C(=O)OC)cc1 (stereo unspecified)
EC50 [3]: 1.09 µM (active) | EC50 [4]: 15.8 µM (active)

COc1ccc(Cl)cc1Nc1nc(-c2cccnc2)cs1
EC50 [3]: 3.22 µM (active) | EC50 [4]: 14 µM (active)
